Reference: patent publication US20050249857A1, “Lignan complexes” (priority 2002, published 2005)
≈ marks a conversion by molar mass, not a printed value. Like-named read-outs stand apart in the source and are kept apart here.

Tests used:
[1] = Phase-solubility study with γ-CD (Higuchi and Connors); settings: 0.16 M acetate buffer pH 5.0, μ = 0.5, 25° C., equilibration 24 hours
Experimental: (§1) The samples from the solubility and stability studies were analysed by using the HPLC system which consist of the UV-detector (L-7400), interface module (D-7000), pump (L-7100) and autosampler (L-7250, Merck Hitachi, Japan). Purospher® reversed phase column (RP-18e, 5 μm, 125×4 mm) was used in all chromatographic separations.
(§2) An excess amount of lignan or lignan ester was added to acetate buffer (0.16 M; pH 5.0; ionic strength 0.5) containing various concentrations of γ-CD (0-10%). The suspensions were shaken in the dark (25° C.) for 24 hour and the pH of the suspensions were monitored during the equilibration. The pH of suspensions was adjusted to 5.0 with HCl or NaOH if necessary. After equilibration, the suspensions were filtered through 0.45 μm membrane filters and analysed by HPLC.

physchem = settings: 25 °C, pH 5, aqueous buffer, thermodynamic from solid
Experimental: as §1, §2

[2] = Phase-solubility study of HMR with HP-β-CD; type: physicochemical; settings: for solubility at 72 h: acetate buffer, 25 °C, thermodynamic from solid, 0.16 M acetate buffer pH 5.0, μ = 0.5, 25° C., equilibration 72 hours
Experimental: The phase solubility studies with HMR was also performed with HP-β-CD (0-10%). In the case of HP-β-CD the equilibration time was 72 hours.

[3] = Chemical stability of HMR in acetate buffer with and without 2% γ-CD; type: physicochemical; settings: for First-order rate constant kobs for chemical degradation / shelf-life t90% for chemical degradation: 0.16 M acetate buffer pH 5.0, 30° C.; for half-life: acetate buffer, pH 5, 0.16 M acetate buffer pH 5.0, 30° C., read-out: half-life t1/2 for chemical degradation (converted)
Experimental: All the solutions were prepared by dissolving 1.5-2.0 mg of HMR into 20 ml of the solutions mentioned above, and the concentration of the remaining HMR was determined at appropriate intervals by HPLC. The pseudo-first order rate constant for overall degradation of HMR was determined from the slopes of the linear semilogarithmic plots of remaining HMR versus time. The results of the stability studies were calculated as an average of three determinations.

| aqueous solubility ([1]; γ-CD 0 g/100 ml) | aqueous solubility ([1]; γ-CD 1 g/100 ml) | aqueous solubility ([1]; γ-CD 2 g/100 ml) [µg/mL] | aqueous solubility ([1]; γ-CD 5 g/100 ml) [µg/mL] | aqueous solubility ([1]; γ-CD 10 g/100 ml) [µg/mL] | solubility at 24 h (physchem) [µg/mL] | Compound | also measured |
| --- | --- | --- | --- | --- | --- | --- | --- |
| – | – | – | – | – | 490 (≈ 1.37 mM) | COc1cc(C[C@H]2COC(=O)[C@@H]2Cc2ccc(O)c(OC)c2)ccc1O [MR, matairesinol] | – |
| 750 µg/mL | 1460 µg/mL | 2070 | 940 | 160 | – | hydroxymatairesinol diacetate [HMRdiAc] | – |
| 700 µg/mL (≈ 1.93 mM) | 1740 µg/mL (≈ 4.8 mM) | 2020 (≈ 5.57 mM) | 1780 (≈ 4.91 mM) | 390 (≈ 1.08 mM) | – | COc1cc(C[C@@H](CO)[C@H](CO)Cc2ccc(O)c(OC)c2)ccc1O [SECO, secoisolariciresinol] | – |
| – | – | – | – | – | 6700 (≈ 17.9 mM) | COc1cc(C[C@H]2C(=O)OC[C@@H]2[C@H](O)c2ccc(O)c(OC)c2)ccc1O [HMR, hydroxymatairesinol] | effect of HP-β-CD on aqueous solubility ([2]; HP-β-CD 0-10%, pH 5.0): increases aqueous solubility; solubility at 72 h ([2]; pH 5, aqueous buffer, HP-β-CD 0 g/100 ml): 14600 µg/mL (≈ 38.9 mM); solubility at 72 h ([2]; pH 5, aqueous with cosolvent or surfactant or cyclodextrin, HP-β-CD 1 g/100 ml): 14900 µg/mL (≈ 39.8 mM); solubility at 72 h ([2]; pH 5, aqueous with cosolvent or surfactant or cyclodextrin, HP-β-CD 2 g/100 ml): 14900 µg/mL (≈ 39.9 mM); solubility at 72 h ([2]; pH 5, aqueous with cosolvent or surfactant or cyclodextrin, HP-β-CD 5 g/100 ml): 20200 µg/mL (≈ 53.8 mM); solubility at 72 h ([2]; pH 5, aqueous with cosolvent or surfactant or cyclodextrin, HP-β-CD 10 g/100 ml): 26800 µg/mL (≈ 71.7 mM); First-order rate constant kobs for chemical degradation ([3]; with 2% γ-CD): 5.71e-05 h⁻¹; shelf-life t90% for chemical degradation ([3]; with 2% γ-CD): 1845 h; First-order rate constant kobs for chemical degradation ([3]; without γ-CD): 0.000691 h⁻¹; shelf-life t90% for chemical degradation ([3]; without γ-CD): 152 h; half-life ([3]; with 2% γ-CD): 506 days; half-life ([3]; without γ-CD): 41.8 days; increase of chemical stability by 2% γ-CD ([3]; pH 5.0, with versus without 2% γ-CD): about 12 fold; kinetics of overall degradation ([3]; presence and absence of 2% γ-CD at pH 5.0): followed first-order kinetics |

| Compound | aqueous solubility ([1]; γ-CD 0 g/100 ml) | aqueous solubility ([1]; γ-CD 1 g/100 ml) | aqueous solubility ([1]; γ-CD 2 g/100 ml) [µg/mL] | aqueous solubility ([1]; γ-CD 5 g/100 ml) [µg/mL] | aqueous solubility ([1]; γ-CD 10 g/100 ml) [µg/mL] | solubility at 24 h (physchem) [µg/mL] | also measured |
| --- | --- | --- | --- | --- | --- | --- | --- |
| CCCC(=O)Oc1ccc(C[C@H]2COC(=O)[C@@H]2Cc2ccc(OC(=O)CCC)c(OC)c2)cc1OC [MRdiBu, matairesinol dibutyrate] | —* (concentration is under the detection limit of the HPLC method employed.) | —* (concentration is under the detection limit of the HPLC method employed.) | 0.87 (≈ 0.00174 mM) | 1.21 (≈ 0.00243 mM) | 0.84 (≈ 0.00168 mM) | – | – |
